Measurements as given in US20160051665A1, “INDUCTION OF IMMUNE RESPONSE” (priority 2010, published 2016).

What was measured:
[1] = tested on: HLA-A2 expressing T2 target cells; experiment: interferon-γ ELISpot: peptide-primed CTLs against peptide-pulsed T2 cells; assay type: cell-based, human; conditions: PBMCs of healthy HLA-A2 donors stimulated in vitro with peptide; FIG. 2A
Experimental: Heparinized blood from healthy HLA-A2 donors was purchased from Research Blood Components, LLC, (Brighton, Mass.). Peripheral blood mononuclear cells were purified and cultured as described (13, 21). After initial stimulation with synthetic peptide, T cells were re-stimulated with CD4/CD8 T cell depleted autologous monocytes pulsed with synthetic peptide at 10 μg/ml for 5 days. IL-2 treatment and in vitro re-stimulation were repeated thrice prior to use of in vitro expanded T cells in ELISpot assays.
In vitro expanded CTLs were used as effectors in ELISpot assays to assess antigen stimulated interferon-γ release according to the manufacturer's instructions (BD-Pharmingen, San Jose, Calif.). Target cells were HepG2 human hepatoma cells (HBV negative; American Type Culture Collection) or HBV-containing HepG2.2.15 cells (22). […]
Peptides presented on the surface of a cell in the context of the MHC class I complex should be recognized with high sensitivity upon incubation with cognate peptide-primed CTLs, with specific killing of the target cells. […] Target cell recognition was quantified by interferon-γ ELISpot assay.
The ability of in vitro generated CTLs to recognize and secrete interferon-γ was evaluated by ELISpot assay. […] The P value was calculated from a Student's t-Test analysis of experimental results.

[2] = tested on: oligosaccharide addition; conditions: cited from earlier work
[3] = tested on: woodchuck hepatitis virus (WHV); conditions: previous study (ref. 11); cited from earlier work
[4] = biological target: T1, glucosidase I (Homo sapiens, UniProt Q13724); conditions: cited from earlier work
T1 sequence (Q13724 1-837): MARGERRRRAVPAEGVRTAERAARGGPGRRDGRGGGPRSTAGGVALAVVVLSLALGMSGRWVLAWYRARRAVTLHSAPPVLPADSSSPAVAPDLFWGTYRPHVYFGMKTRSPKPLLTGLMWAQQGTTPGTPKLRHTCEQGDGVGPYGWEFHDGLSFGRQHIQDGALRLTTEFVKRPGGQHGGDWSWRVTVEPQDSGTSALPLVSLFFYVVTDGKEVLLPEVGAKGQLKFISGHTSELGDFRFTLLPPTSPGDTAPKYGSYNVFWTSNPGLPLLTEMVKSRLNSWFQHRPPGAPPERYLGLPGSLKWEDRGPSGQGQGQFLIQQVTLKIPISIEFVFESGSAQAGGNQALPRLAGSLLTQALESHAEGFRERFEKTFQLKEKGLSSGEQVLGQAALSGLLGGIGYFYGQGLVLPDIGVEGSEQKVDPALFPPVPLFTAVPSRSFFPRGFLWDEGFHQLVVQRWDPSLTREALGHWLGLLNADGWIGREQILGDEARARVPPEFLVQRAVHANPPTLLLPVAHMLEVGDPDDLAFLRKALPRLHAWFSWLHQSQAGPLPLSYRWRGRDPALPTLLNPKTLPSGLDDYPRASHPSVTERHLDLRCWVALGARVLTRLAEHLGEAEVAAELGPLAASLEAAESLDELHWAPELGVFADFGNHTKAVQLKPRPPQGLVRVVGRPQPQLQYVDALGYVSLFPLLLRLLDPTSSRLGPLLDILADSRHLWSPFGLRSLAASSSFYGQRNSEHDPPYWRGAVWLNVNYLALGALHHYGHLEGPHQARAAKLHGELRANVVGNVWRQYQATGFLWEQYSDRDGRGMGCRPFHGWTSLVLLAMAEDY

Molecule: KPSDGNCTC [N-peptide]
- elicitation of specific CTLs that recognize T2 target cells [1]: effective elicitors of specific CTLs

Molecule: OC[C@H]1NC[C@H](O)[C@@H](O)[C@@H]1O [deoxynojirimycin]
- prevention of oligosaccharide addition [2]: prevents oligosaccharide addition some fraction of the time

Molecule: CCCCCCCCCN1C[C@H](O)[C@@H](O)[C@H](O)[C@H]1CO [N-nonyl deoxynojirimycin]
- antiviral activity in woodchucks [3]: antiviral activity had previously been observed

Molecule: KPSDGDCTC [D-peptide, de-N-glycosylated 'D' substituted HBs peptide]
- elicitation of specific CTLs that recognize T2 target cells [1]: effective elicitors of specific CTLs

Molecule: O[C@H]1[C@H](O)[C@@H](O)CN2CC[C@H](O)[C@H]12 [Castanospermine]
- potency as inhibitor of glucosidase I relative to deoxynojirimycin [4]: more potent inhibitors of glucosidase I than deoxynojirimycin
- prevention of oligosaccharide addition [2]: does not
